These results are taken from the OPERA property sets (Mansouri et al. 2018).

One may read the boiling point as the temperature of boiling at a given pressure. A word on the melting point: it is the temperature, or range, at which the solid turns liquid. As to `CC(C)COC(=O)c1ccccc1O`, the boiling point was determined as 261 °C and the melting point was determined as 5.9 °C.
Turning to `CC(CO)(CO)CO`, the boiling point turned out to be 283 °C, the melting point came to 204 °C and the ready biodegradability result is on record as “not readily biodegradable”.
In turn, `CCOc1ccc2ccccc2c1C=O` returned a melting point of 115 °C.
Turning to `O=C(O)C1CCCCN1` (stereo unspecified), the melting point amounted to 264 °C.
`COP(=O)(OC)SCn1c(=O)oc2cc(Cl)cnc21`: the log10 vapour pressure (mmHg) was -7.44 and the melting point is 89 °C.
The molecule `Cc1ccc(Cl)c(N)c1` yielded a boiling point of 229 °C and a melting point of 29.5 °C.
As for `CCC1(c2ccccc2)C(=O)NCNC1=O`, the melting point was found to be 282 °C.
`NS(=O)(=O)c1ccc(N2C(=O)CC(c3ccccc3)C2=O)c(Cl)c1` (stereo unspecified): the melting point is 206 °C.
Regarding `N#CCc1cccc(CC#N)c1`, the melting point was 33.5 °C.
As to `C[Si](Cl)(Cl)c1ccccc1`, the boiling point was found to be 206 °C and the log10 vapour pressure (mmHg) is -0.312.
On to `CC(C)C[C@@H](NC(=O)[C@@H](O)[C@H](N)Cc1ccccc1)C(=O)O`, for which the melting point was found to be 234 °C.
In the case of `FC(Cl)(Cl)Cl`, the boiling point was determined as 23.7 °C, the log10 Henry constant (atm·m³/mol) is -1.01, the log10 vapour pressure (mmHg) is 2.9 and the melting point is -111 °C.
On to `CC(C)CC(N)=O`, for which the boiling point is 226 °C and the melting point came to 137 °C.
For `CCOC(=O)c1ccccc1[N+](=O)[O-]` the same measures were 275 °C and 30 °C.
For the molecule `Cc1cccc(C)c1O`, the boiling point was 201 °C, the log10 Henry constant (atm·m³/mol) is -5.18, the log10 vapour pressure (mmHg) was -0.767 and the melting point amounted to 45.7 °C. Also, the ready biodegradability result is recorded as “not readily biodegradable”.
`COc1cc(CCO)ccc1O` showed a melting point of 41 °C.
For the molecule `ClCCOC(c1ccccc1)c1ccccc1`, the ready biodegradability result is listed as “not readily biodegradable”.
For `SC1CCCCC1`, the boiling point is 159 °C and the log10 vapour pressure (mmHg) worked out at 0.598.
In turn, `O=C(C=Cc1ccccc1)OCc1ccccc1` displayed a boiling point of 350 °C, a log10 vapour pressure (mmHg) of -5 and a melting point of 39 °C.
With `CCCCCCCCCCCCCCCCCCCCCC(N)=O`, the ready biodegradability result is “not readily biodegradable”.
Molecule `CC12CCC(C1)C(C)(C)C2O` (stereo unspecified) yielded a log10 vapour pressure (mmHg) of -1.2.
In turn, `CCc1cnccn1` displayed a boiling point of 152 °C and a log10 Henry constant (atm·m³/mol) of -5.61.
Take `COc1ccc([C@@H]2Sc3ccccc3N(CCN(C)C)C(=O)[C@@H]2OC(C)=O)cc1`: the melting point is 210 °C.
On to `CC1=C(C(=O)Nc2ccccc2)S(=O)(=O)CCO1`, for which the log10 Koc (L/kg) was 1.98, the log10 vapour pressure (mmHg) was -7.38 and the melting point is 120 °C.
As for `O=C1c2ccccc2C(=O)c2cc(Cl)ccc21`, the melting point was 211 °C and the ready biodegradability entry was “not readily biodegradable”.
Molecule `O=[n+]1[n-]c(-n2ccnc2)nc2ccc(Cl)cc21` yielded a log10 vapour pressure (mmHg) of -8.65 and a melting point of 182 °C.
As to `O=C(O)c1ccc(F)cc1F`, the melting point was 189 °C.
The molecule `COBOC` registered a boiling point of 25.9 °C and a melting point of -131 °C.
Regarding `COC(=O)CC(O)(CC(=O)OC)C(=O)OC`, the boiling point came to 285 °C and the melting point was found to be 79.3 °C.
`FC(F)(F)c1cccc(C(c2ccccc2)(c2ccccc2)n2cncn2)c1` returned a melting point of 132 °C.
Consider `COC(=O)C(C)C(=O)OC`, for which the boiling point was 174 °C.
`CCC1CCc2ccccc21` (stereo unspecified) returned a boiling point of 212 °C.
`CSc1nnc(C(C)(C)C)c(=O)n1/N=C/C(C)C` yielded a log10 vapour pressure (mmHg) of -6.46 and a melting point of 159 °C.
For `CC(c1c(O)c2ccccc2oc1=O)c1c(O)c2ccccc2oc1=O`, the melting point turned out to be 178 °C.
`O=C1c2cccc(O)c2C(=O)c2c(O)cc(CO)cc21` came in with a melting point of 224 °C.
As to `Cc1ccc(CC(C)C)cc1`, the boiling point was 196 °C.
For the molecule `O=S(=O)(O)CCN1CCN(CCS(=O)(=O)O)CC1`, the ready biodegradability result was “not readily biodegradable”.
`CC[N+](CC)(CC(=O)Nc1c(C)cccc1C)Cc1ccccc1.O=C([O-])c1ccccc1` yielded a melting point of 168 °C.
The same measure, in the same setting: under `CC(C)C(OC(=O)c1cccnc1)c1ccc(Cl)cc1` (stereo unspecified) stands 61 °C.
Molecule `C[C@@H]1NC(=O)N[C@@H]1CCCCCC(=O)O` showed a melting point of 157 °C.
Still for that read-out and setting: then `NC(=O)C(Br)(Br)Br`, with 122 °C; and `C[C@@H](N)C(=O)O`, with 292 °C.
Take `ClCC=C(Cl)Cl`: the boiling point is 132 °C.
In turn, `O=S(=O)(Cl)C(Cl)(Cl)Cl` gave a boiling point of 170 °C and a melting point of 140 °C.
Take `Nc1c(Br)cc(O)c2c1C(=O)c1ccccc1C2=O`: the ready biodegradability entry is reported as “not readily biodegradable”.
With `COC(CCl)OC`, the boiling point amounted to 128 °C.
`O=C(CF)c1ccccc1` came in with a melting point of 29 °C.
As to `CC(N)CCN` (stereo unspecified), the boiling point came out at 140 °C.
`Brc1cc2ccccc2c2ccccc12` returned a melting point of 64.5 °C.
For `NNc1ccccc1`, the boiling point is 244 °C, the log10 vapour pressure (mmHg) was -1.58 and the melting point turned out to be 19.6 °C.
`O=C(O)CCc1c[nH]c2ccccc12`: the melting point was 134 °C.
For `C1=CCCCCC1`, the boiling point was found to be 115 °C and the melting point was -56 °C.
In turn, `CCCCC(C)c1ccccc1` (stereo unspecified) returned a boiling point of 208 °C.
Consider `C[C@H](CCC(=O)NCC(=O)O)[C@H]1CC[C@H]2[C@@H]3[C@H](O)C[C@@H]4C[C@H](O)CC[C@]4(C)[C@H]3C[C@H](O)[C@]12C`, for which the melting point was 166 °C.
On the same count and under the same terms, then `CCc1ccc(C(=O)O)cc1`, with 112 °C; and `CN(C)CCCNc1c2ccccc2nc2cccc([N+](=O)[O-])c12`, with 134 °C.
